{"source": "patent US12219980B2", "about": "“Nutritionally enhanced fraction from rice bran and method of lowering insulin resistance using same” (QJV, LLC, priority 2010, dated 2025)", "origin": "cited, not measured here", "key": {"[1]": {"settings": "in vivo"}, "[2]": {"settings": "animal studies, compared with controls"}, "[3]": {"molecular_target": "T1, HMG-CoA (Homo sapiens, UniProt P04035)", "T1 sequence (P04035 1-888)": "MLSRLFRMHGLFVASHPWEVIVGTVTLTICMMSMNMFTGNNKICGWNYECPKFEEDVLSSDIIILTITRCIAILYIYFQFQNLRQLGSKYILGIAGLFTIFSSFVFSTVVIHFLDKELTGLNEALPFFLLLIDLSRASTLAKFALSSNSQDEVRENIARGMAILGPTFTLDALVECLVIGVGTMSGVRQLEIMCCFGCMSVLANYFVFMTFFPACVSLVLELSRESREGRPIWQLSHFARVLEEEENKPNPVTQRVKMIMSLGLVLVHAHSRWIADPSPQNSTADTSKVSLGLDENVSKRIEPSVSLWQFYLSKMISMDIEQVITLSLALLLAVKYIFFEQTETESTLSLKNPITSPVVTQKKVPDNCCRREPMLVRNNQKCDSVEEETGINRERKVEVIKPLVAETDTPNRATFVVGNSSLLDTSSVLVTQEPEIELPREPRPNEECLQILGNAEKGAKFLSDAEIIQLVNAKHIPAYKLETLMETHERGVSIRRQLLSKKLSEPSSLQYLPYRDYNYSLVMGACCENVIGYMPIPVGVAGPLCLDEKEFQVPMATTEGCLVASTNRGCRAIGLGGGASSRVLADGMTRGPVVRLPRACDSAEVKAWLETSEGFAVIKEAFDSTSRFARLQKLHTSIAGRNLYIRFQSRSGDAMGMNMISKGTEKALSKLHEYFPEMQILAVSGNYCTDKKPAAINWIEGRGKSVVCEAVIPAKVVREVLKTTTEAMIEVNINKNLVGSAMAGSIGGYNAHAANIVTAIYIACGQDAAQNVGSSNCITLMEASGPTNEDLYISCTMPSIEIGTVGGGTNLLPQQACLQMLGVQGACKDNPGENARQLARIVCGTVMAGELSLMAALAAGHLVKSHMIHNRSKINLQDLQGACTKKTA", "settings": "micromolar amounts"}, "[4]": {"settings": "in vivo", "remark": "listed apart in the source"}}}
{"compound": "gamma-oryzanol", "values": [{"measurement": "bile acid secretion and fecal excretion of cholesterol", "setting": "[1]", "result": "affect bile acid secretion and fecal excretion of cholesterol"}]}
{"compound": "COc1cc(/C=C/C(=O)O)ccc1O", "note": "[ferulic acid]", "values": [{"measurement": "activities of hepatic glucose-6-phosphate dehydrogenase, catalase and peroxidase", "setting": "[2]", "result": "diminishing"}, {"measurement": "levels of glycogen in the liver and skeletal muscle", "setting": "[2]", "result": "significantly decreased"}]}
{"compound": "tocotrienol", "values": [{"measurement": "activity of HMG-CoA", "setting": "[3]", "result": "suppress the activity of HMG-CoA"}, {"measurement": "total cholesterol and LDL cholesterol in blood plasma", "setting": "[4]", "result": "lower"}]}
